# From PubChem BioAssay (NCI)
#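 In this assay, cells in 96-well plates receive the compound at five concentrations for 48 hours. Endpoints are linearly interpolated between the surrounding concentrations. Abbreviation: GI50, concentration required for 50% inhibition of growth. TGI is the concentration that stops growth completely.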
# Tests used:
# Assay in all cases: growth of human tumour cells (NCI), 48 h
# 786-0 renal = system: 786-0 renal
# A498 renal = system: A498 renal
# A549 NSCLC = system: A549 NSCLC
# ACHN renal = system: ACHN renal
# BT-549 breast = system: BT-549 breast
# CAKI-1 renal = system: CAKI-1 renal
# CCRF-CEM leukemia = system: CCRF-CEM leukemia
# COLO 205 colon = system: COLO 205 colon
# DU-145 prostate = system: DU-145 prostate
# EKVX NSCLC = system: EKVX NSCLC
# HCC-2998 colon = system: HCC-2998 colon
# HCT-116 colon = system: HCT-116 colon
# HCT-15 colon = system: HCT-15 colon
# HL-60(TB) leukemia = system: HL-60(TB) leukemia
# HOP-62 NSCLC = system: HOP-62 NSCLC
# HOP-92 NSCLC = system: HOP-92 NSCLC
# HS 578T breast = system: HS 578T breast
# HT29 colon = system: HT29 colon
# IGROV1 ovarian = system: IGROV1 ovarian
# K-562 leukemia = system: K-562 leukemia
# KM12 colon = system: KM12 colon
# LOX IMVI melanoma = system: LOX IMVI melanoma
# M14 melanoma = system: M14 melanoma
# MALME-3M melanoma = system: MALME-3M melanoma
# MCF7 breast = system: MCF7 breast
# MDA-MB-231 breast = system: MDA-MB-231 breast
# MDA-MB-435 = system: MDA-MB-435
# MOLT-4 leukemia = system: MOLT-4 leukemia
# NCI-H226 lung = system: NCI-H226 lung
structure (smiles),measurement,setting,value
COc1ccc(C2=NC(=O)NC2c2ccc(OC)cc2)cc1 (configuration not stated),GI50,786-0 renal,26.9 µM
same,TGI,786-0 renal,> 100 µM
same,GI50,A498 renal,4.49 µM
same,TGI,A498 renal,29.1 µM
same,GI50,A549 NSCLC,11.8 µM
same,TGI,A549 NSCLC,> 100 µM
same,GI50,ACHN renal,21.9 µM
same,TGI,ACHN renal,> 100 µM
same,GI50,BT-549 breast,3.89 µM
same,TGI,BT-549 breast,29.5 µM
same,GI50,CAKI-1 renal,2.51 µM
same,TGI,CAKI-1 renal,15.4 µM
same,GI50,CCRF-CEM leukemia,38.9 µM
same,TGI,CCRF-CEM leukemia,> 100 µM
same,GI50,COLO 205 colon,6.47 µM
same,TGI,COLO 205 colon,21.3 µM
same,GI50,DU-145 prostate,23 µM
same,TGI,DU-145 prostate,> 100 µM
same,GI50,EKVX NSCLC,13 µM
same,TGI,EKVX NSCLC,64.6 µM
same,GI50,HCC-2998 colon,13 µM
same,TGI,HCC-2998 colon,33.6 µM
same,GI50,HCT-116 colon,5.9 µM
same,TGI,HCT-116 colon,27.7 µM
same,GI50,HCT-15 colon,4.78 µM
same,TGI,HCT-15 colon,> 100 µM
same,GI50,HL-60(TB) leukemia,2.2 µM
same,TGI,HL-60(TB) leukemia,15.6 µM
same,GI50,HOP-62 NSCLC,15.2 µM
same,TGI,HOP-62 NSCLC,> 100 µM
same,GI50,HOP-92 NSCLC,1.95 µM
same,TGI,HOP-92 NSCLC,30.5 µM
same,GI50,HS 578T breast,7.18 µM
same,TGI,HS 578T breast,48.5 µM
same,GI50,HT29 colon,3.78 µM
same,TGI,HT29 colon,27.9 µM
same,GI50,IGROV1 ovarian,23.2 µM
same,TGI,IGROV1 ovarian,> 100 µM
same,GI50,K-562 leukemia,2.8 µM
same,TGI,K-562 leukemia,20.8 µM
same,GI50,KM12 colon,4.5 µM
same,TGI,KM12 colon,29.5 µM
same,GI50,LOX IMVI melanoma,12.4 µM
same,TGI,LOX IMVI melanoma,> 100 µM
same,GI50,M14 melanoma,4.03 µM
same,TGI,M14 melanoma,25.4 µM
same,GI50,MALME-3M melanoma,4.91 µM
same,TGI,MALME-3M melanoma,68.3 µM
same,GI50,MCF7 breast,4.34 µM
same,TGI,MCF7 breast,> 100 µM
same,GI50,MDA-MB-231 breast,12.3 µM
same,TGI,MDA-MB-231 breast,> 100 µM
same,GI50,MDA-MB-435,1.73 µM
same,TGI,MDA-MB-435,4.56 µM
same,GI50,MOLT-4 leukemia,1.2 µM
same,TGI,MOLT-4 leukemia,96.7 µM
same,GI50,NCI-H226 lung,14.8 µM
